# How the values were obtained:
# [1] = tested on: B16; assay: Inhibition of melanin production in mouse B16 cells at 100 uM after 48 hrs by spectrophotometry relative to control; assay type: functional; settings: B16, 48 h
# [2] = tested on: B16; assay: Inhibition of melanin production in mouse B16 cells at 0.1 uM after 48 hrs by spectrophotometry relative to control; assay type: functional; settings: B16, 48 h
# [3] = Cytotoxicity against mouse B16 cells assessed as viability at 0.1 uM after 48 hrs by viacount reagent staining technique relative to control; assay type: cell-based; settings: read-out: Activity
smiles,measurement,setting,value
OC[C@H]1O[C@@H](Oc2ccc(O)cc2)[C@H](O)[C@@H](O)[C@@H]1O [ARBUTIN],inhibition at 100 µM,[1],33%
C=C(C)[C@@]12OC3(/C=C/CCCCC)O[C@@H]1[C@@H]1[C@@H]4O[C@]4(CO)[C@@H](O)[C@]4(O)C(=O)C(C)=C[C@H]4[C@@]1(O3)[C@H](C)[C@H]2OC(=O)/C=C/c1ccccc1 [HIRSEIN A],inhibition at 0.1 µM,[2],37%
same,"viability at 48 h, 0.1 µM",[3],99.3%
C=C(C)[C@@]12OC3(CCCCCCCCC)O[C@@H]1[C@@H]1[C@@H]4O[C@]4(CO)[C@@H](O)[C@]4(O)C(=O)C(C)=C[C@H]4[C@@]1(O3)[C@H](C)[C@H]2OC(=O)/C=C/c1ccc(O)cc1 [HIRSEIN B],inhibition at 0.1 µM,[2],26%
same,"viability at 48 h, 0.1 µM",[3],97.5%

# Reference: ChEMBL document CHEMBL1152346, “Hirseins A and B, daphnane diterpenoids from Thymelaea hirsuta that inhibit melanogenesis in B16 melanoma cells” (J Nat Prod, 2009)
